Data as given in article PMC6694155, “PTPσ inhibitors promote hematopoietic stem cell regeneration” (Nature Communications, 2019).
Where “and” joins values, the source holds several entries; their conditions need not be identical. Equal values may be shown once. Entries after “also recorded” stand apart in the source; their conditions may differ.

Tests used:
PTPσ = molecular target: T1, PTPσ (Mus musculus, UniProt B0V2N1); assay: PTPσ enzymatic assay (modified Malachite Green / Tyrosine Phosphatase Assay Kit); type: biochemical; details: for PTPσ inhibitory activity (in words): direct PTPσ enzymatic assay; for Supplementary Figure 5b: PTPσ enzymatic assay signal: replicates
T1 sequence (B0V2N1 1326-1907): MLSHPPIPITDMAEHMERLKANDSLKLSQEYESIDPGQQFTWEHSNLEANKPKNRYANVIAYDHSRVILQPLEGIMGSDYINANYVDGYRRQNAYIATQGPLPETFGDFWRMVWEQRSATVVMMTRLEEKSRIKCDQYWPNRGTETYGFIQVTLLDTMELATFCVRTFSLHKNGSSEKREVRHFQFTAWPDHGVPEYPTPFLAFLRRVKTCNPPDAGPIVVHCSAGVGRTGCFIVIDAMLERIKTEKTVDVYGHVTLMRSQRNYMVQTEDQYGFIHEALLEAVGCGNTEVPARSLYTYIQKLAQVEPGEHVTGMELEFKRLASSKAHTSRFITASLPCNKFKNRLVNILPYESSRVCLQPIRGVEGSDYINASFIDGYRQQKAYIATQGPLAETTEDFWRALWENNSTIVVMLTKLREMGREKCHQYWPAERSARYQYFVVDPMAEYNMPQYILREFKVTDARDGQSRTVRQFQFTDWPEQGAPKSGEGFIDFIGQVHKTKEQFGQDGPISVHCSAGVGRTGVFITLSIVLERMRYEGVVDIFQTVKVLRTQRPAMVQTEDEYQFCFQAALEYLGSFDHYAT
Method: The two intracellular catalytic domains (D1 and D2) of Ptprs were cloned into a pET28a vector, overexpressed in Escherichia coli BL21 and purified. Enzymatic activity of PTPσ was assayed using a modified version of the Malachite Green Assay[66] and the Tyrosine Phosphatase Assay Kit (Promega Corporation). Unless stated otherwise, standard assays were carried out using 50 nM PTPσ protein in 1× Buffer (10 mM Tris, 5 mM MgCl2, 10 mM NaCl, 0.02% Tween) and Tyr Phosphopeptide as substrate (200 μM for Fig. 1b, c, 50–1200 μM in Fig. 1c). Purified catalytic domain 1 and domain 2 of PTPσ were pre-incubated with test compounds 3071, 5205, 5075, or control for 15 min in a 96-well plate before the addition of Tyr Phosphopeptide (DADE(pY)LIPQQG). For IC50 determination, rates normalized relative to uninhibited controls (dimethyl sulfoxide (DMSO)) were plotted against compound concentration and fitted using a four-parameter nonlinear regression curve fit ((y = [(A − D) (1 + {xC − 1}B) − 1] + D) (Prism 6.0, Graphpad Software). For mechanism studies and determination of the enyzme’s Km and Vmax, data were analyzed using a nonlinear regression fit according to the classical Michaelis–Menten kinetics model, Y = Vmax*X/(Km + X) (Prism 6.0, Graphpad Software).

C57BL/6 mice = assay: Survival study after 750 cGy TBI; type: in vivo, mouse
Method: For survival studies, 10-week-old female C57BL/6 mice were irradiated with 750 cGy TBI, which is lethal for ~50% of C57BL/6 mice by day + 30 (LD50/30), using a Shepherd Cesium-137 irradiator. Twenty four hours post irradiation, mice were administered daily subcutaneous injections of 5 mg/kg DJ001 or DJ009, or vehicle in a volume of 100 μL for 10 days. DJ001 or DJ009 injections were prepared in PBS, 0.5% Tween 80, and 10% DMSO. Corresponding vehicle injections contained PBS, 10% DMSO, and 0.5% Tween 80. PB complete blood counts were measured using a Hemavet 950 instrument (Drew Scientific) at day + 10 post irradiation. For hematopoietic analysis, BM cells were collected at day + 10 post irradiation. To study whether DJ001 increased survival rates through activation of RAC signaling, the RAC inhibitor, EHT1864 (Selleckchem), was dissolved in PBS and administered intraperitoneally, 40 mg/kg every other day, to 750 cGy-irradiated mice until day + 10.

[1] = 750 cGy TBI, DJ001 daily day +1 to +10, through day +40

O=C(/C=C\Nc1cccc([N+](=O)[O-])c1)c1ccccc1 [DJ001, (Z)-3-((3-nitrophenyl)amino)-1-phenylprop-2-en-1-one]
PTPσ inhibitory activity (in words) (PTPσ): confirmed the inhibitory effect
PTPσ inhibitory activity (in words) (PTPσ; listed as 5483071): strong inhibitory activity
percent survival (C57BL/6 mice; [1]): 93%
survival, mice alive of total (Fig. 2f) (C57BL/6 mice; [1]): 27/29 and 27 of 29
survival, mice alive of total (Fig. 3f) (C57BL/6 mice; 750 cGy, 10-day treatment, EHT1864 40 mg/kg i.p. every other day): 11/15
Figure 3f: survival event per mouse (1 = event, 0 = censored) (C57BL/6 mice; Days Post-irradiation 14): 1
Figure 3f: survival event per mouse (1 = event, 0 = censored) (C57BL/6 mice; Days Post-irradiation 17): 1
Figure 3f: survival event per mouse (1 = event, 0 = censored) (C57BL/6 mice; Days Post-irradiation 18): 1
survival source data, event code per mouse (C57BL/6 mice; Days Post-irradiation 18): 1
Figure 3f: survival event per mouse (1 = event, 0 = censored) (C57BL/6 mice; Days Post-irradiation 20): 1
Figure 3f: survival event per mouse (1 = event, 0 = censored) (C57BL/6 mice; Days Post-irradiation 30): 0
survival source data, event code per mouse (C57BL/6 mice; Days Post-irradiation 40): 0

O=C(/C=C\Nc1cc(F)cc(F)c1)c1ccccc1 [DJ009, (Z)-3-((3,5-difluorophenyl)amino)-1-phenylprop-2-en-1-one]
PTPσ inhibitory activity (in words) (PTPσ): strongly inhibited PTPσ activity; also recorded: strong PTPσ inhibitory
Supplementary Figure 5b: PTPσ enzymatic assay signal (PTPσ; inhibitor 0.0122 uM): 0.21 and 0.203 (2×)
Supplementary Figure 5b: PTPσ enzymatic assay signal (PTPσ; inhibitor 0.049 uM): 0.201 and 0.209 and 0.211
Supplementary Figure 5b: PTPσ enzymatic assay signal (PTPσ; inhibitor 0.09 uM): 0.199 and 0.194 and 0.195
Supplementary Figure 5b: PTPσ enzymatic assay signal (PTPσ; inhibitor 0.19 uM): 0.178 and 0.174 and 0.176
Supplementary Figure 5b: PTPσ enzymatic assay signal (PTPσ; inhibitor 0.39 uM): 0.161 and 0.165 and 0.164
Supplementary Figure 5b: PTPσ enzymatic assay signal (PTPσ; inhibitor 0.78 uM): 0.162 and 0.166 and 0.165
Supplementary Figure 5b: PTPσ enzymatic assay signal (PTPσ; inhibitor 1.56 uM): 0.16 and 0.163 and 0.158
Supplementary Figure 5b: PTPσ enzymatic assay signal (PTPσ; inhibitor 3.125 uM): 0.154 and 0.159 and 0.16
Supplementary Figure 5b: PTPσ enzymatic assay signal (PTPσ; inhibitor 6.25 uM): 0.157 and 0.162 and 0.156
survival of irradiated C57BL/6 mice (in words) (C57BL/6 mice; 750 cGy TBI, 5 mg/kg daily for 10 days): significantly increased survival
survival, mice alive of total (Supplementary Fig. 5f) (C57BL/6 mice; 750 cGy, 5 mg/kg DJ009 daily for 10 d): 24/24
Supplementary Figure 5f: survival event per mouse (1 = event, 0 = censored) (C57BL/6 mice; Days post-radiation 30): 0
